Test results reported in the Kinase Knowledgebase extract (Sharma et al. 2016).

Biological target: MAPK14 (human) (UniProt Q16539)
Assay: Inhibition of In vitro MAPK14 Kinase Activity

Chain of MAPK14 (human) (Q16539 whole entry, looked up): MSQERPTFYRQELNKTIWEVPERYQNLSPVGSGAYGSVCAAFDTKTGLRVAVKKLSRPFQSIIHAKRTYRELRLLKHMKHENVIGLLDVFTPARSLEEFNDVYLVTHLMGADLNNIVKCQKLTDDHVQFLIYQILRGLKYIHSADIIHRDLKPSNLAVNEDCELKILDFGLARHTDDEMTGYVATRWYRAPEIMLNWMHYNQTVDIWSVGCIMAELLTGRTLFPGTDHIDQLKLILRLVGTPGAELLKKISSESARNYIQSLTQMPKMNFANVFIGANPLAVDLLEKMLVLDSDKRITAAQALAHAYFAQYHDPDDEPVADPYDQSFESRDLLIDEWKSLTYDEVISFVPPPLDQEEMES

Structure (SMILES) | IC50
O=c1c(Br)c(NCc2ccc(F)cc2)cnn1Cc1ccccc1 | 60 to 80 µM
O=c1c(Br)c(OCc2ccc(F)cc2F)cnn1CCO | 20 to 40 µM
O=c1c(Br)c(OCc2ccc(F)c(F)c2F)cnn1-c1c(Cl)cccc1Cl | 0.1 to 20 µM
O=c1c(Br)c(NCc2ccc(F)cc2)cnn1-c1c(Cl)cccc1Cl | 0.1 to 20 µM
O=c1c(Br)c(OCc2ccc(F)c(F)c2)cnn1-c1c(Cl)cccc1Cl | 0.1 to 20 µM
O=c1c(Br)c(NCc2cccc(Cl)c2)cnn1-c1c(Cl)cccc1Cl | 20 to 40 µM
O=c1[nH]ncc(OCc2ccc(F)cc2F)c1Br | > 100 µM
O=c1c(Br)c(O)cnn1-c1c(Cl)cccc1Cl | > 100 µM
O=c1c(Br)c(NCC2CCCO2)cnn1-c1c(Cl)cccc1Cl (configuration not stated) | > 100 µM
O=c1c(Br)c(Sc2ccc(F)cc2)cnn1Cc1ccccc1 | > 100 µM
O=c1c(Br)c(OCc2ccccc2)cnn1-c1ccccc1 | 20 to 40 µM
O=c1c(Br)c(OCCc2ccccc2)cnn1Cc1ccccc1 | > 100 µM
Nc1ccccc1CNc1cnn(-c2c(Cl)cccc2Cl)c(=O)c1Br | 0.1 to 20 µM
CN(C)CCCn1ncc(OCc2ccc(F)cc2F)c(Br)c1=O | > 100 µM
O=c1c(Br)c(NCC(O)c2ccccc2)cnn1-c1c(Cl)cccc1Cl (configuration not stated) | 0.1 to 20 µM
O=c1c(Br)c(Sc2ccc(F)cc2)cnn1-c1c(Cl)cccc1Cl | > 100 µM
O=C(O)C(Nc1cnn(Cc2ccccc2)c(=O)c1Br)c1ccccc1 (configuration not stated) | > 100 µM
O=c1c(Br)c(OCc2c(F)cc(F)cc2F)cnn1-c1c(Cl)cccc1Cl | 0.1 to 20 µM
CC(C)c1ccccc1Sc1cnn(Cc2ccccc2)c(=O)c1Br | > 100 µM
CN(C)CCn1ncc(OCc2ccc(F)cc2F)c(Br)c1=O | > 100 µM
CN(C)CCCn1ncc(OCCc2ccccc2)c(Br)c1=O | > 100 µM

Structure (SMILES) | IC50
O=c1c(Br)c(OCc2ccc(F)cc2)cnn1Cc1ccccc1 | > 100 µM
O=C(O)C(Nc1cnn(-c2c(Cl)cccc2Cl)c(=O)c1Br)c1ccccc1 (configuration not stated) | > 100 µM
Cc1nc(Cn2ncc(OCc3ccc(F)cc3F)c(Br)c2=O)cs1 | 0.1 to 20 µM
O=c1c(Br)c(NCC(CCO)c2ccc(Cl)cc2)cnn1-c1c(Cl)cccc1Cl (configuration not stated) | > 100 µM
O=c1c(Br)c(N2CCN(c3ccc(F)cc3)CC2)cnn1-c1c(Cl)cccc1Cl | > 100 µM
O=c1c(Br)c(OCc2ccc(F)cc2F)cnn1-c1c(Cl)cncc1Cl | 0.1 to 20 µM
O=c1c(Br)c(OCc2ccc(F)cc2F)cnn1Cc1ccncc1 | 0.1 to 20 µM
O=c1c(Br)c(OCc2ccc(F)cc2F)cnn1-c1c(Cl)c[n+]([O-])cc1Cl | 0.1 to 20 µM
C[C@@H](Nc1cnn(-c2c(Cl)cccc2Cl)c(=O)c1Br)[C@@H](O)c1ccccc1 | > 100 µM
O=c1[nH]ncc(OCCc2ccccc2)c1Br | > 100 µM
O=C(O)CC(CNc1cnn(-c2c(Cl)cccc2Cl)c(=O)c1Br)c1ccc(Cl)cc1 (configuration not stated) | 80 to 100 µM
O=c1c(Br)c(OCCc2ccccc2)cnn1CCO | > 100 µM
O=c1c(Br)c(OCc2ccc(F)cc2F)cnn1-c1c(Cl)cccc1Cl | 0.1 to 20 µM
O=c1c(Br)c(NCC2CCCO2)cnn1Cc1ccccc1 (configuration not stated) | > 100 µM
O=c1c(Br)c(NCCc2ccccc2F)cnn1-c1c(Cl)cccc1Cl | 0.1 to 20 µM
CN(C)CCn1ncc(OCCc2ccccc2)c(Br)c1=O | > 100 µM
O=c1c(Br)c(OCCc2ccccc2)cnn1Cc1ccncc1 | > 100 µM
O=c1c(Br)c(N[C@@H]2C[C@H]2c2ccccc2)cnn1-c1c(Cl)cccc1Cl | > 100 µM
C[C@H](Nc1cnn(-c2c(Cl)cccc2Cl)c(=O)c1Br)[C@H](O)c1ccccc1 | > 100 µM
O=c1c(Br)c(OCc2ccccc2)cnn1Cc1ccccc1 | > 100 µM

Now from value to compound:

IC50 | Structure (SMILES)
> 100 µM | O=c1c(Br)c(OCCCc2ccccc2)cnn1-c1c(Cl)cccc1Cl
40 to 60 µM | O=c1cc(OCCc2ccccc2)cnn1-c1c(Cl)cccc1Cl
0.1 to 20 µM | COc1ccccc1COc1cnn(-c2c(Cl)cccc2Cl)c(=O)c1Br
> 100 µM | CC(C)Cc1c(OCCc2ccccc2)cnn(-c2c(Cl)cccc2Cl)c1=O
> 100 µM | O=c1c(Br)c(NC(CO)Cc2ccccc2)cnn1-c1c(Cl)cccc1Cl (configuration not stated)
20 to 40 µM | CN(CCc1ccccc1)c1cnn(-c2c(Cl)cccc2Cl)c(=O)c1Br
> 100 µM | O=c1c(-c2ccccc2)c(OCCc2ccccc2)cnn1-c1c(Cl)cccc1Cl
0.1 to 20 µM | O=c1c(Br)c(OCCc2ccccc2)cnn1-c1c(Cl)cccc1Cl
0.1 to 20 µM | O=c1c(Br)c(OCc2ccc(F)cc2)cnn1-c1c(Cl)cccc1Cl
0.1 to 20 µM | O=c1c(Br)c(N[C@H](CO)c2ccccc2)cnn1-c1c(Cl)cccc1Cl
> 100 µM | O=c1c(Br)c(Nc2ccccc2)cnn1-c1c(Cl)cccc1Cl
0.1 to 20 µM | O=c1c(Br)c(OCc2ccccc2CO)cnn1-c1c(Cl)cccc1Cl
0.1 to 20 µM | C[C@H](Nc1cnn(-c2c(Cl)cccc2Cl)c(=O)c1Br)c1ccccc1
> 100 µM | O=c1c(Br)c(N[C@@H](CO)c2ccccc2)cnn1-c1c(Cl)cccc1Cl
0.1 to 20 µM | O=c1c(Br)c(OCCc2ccccn2)cnn1-c1c(Cl)cccc1Cl
0.1 to 20 µM | O=c1c(Br)c(OCc2ccccc2CCl)cnn1-c1c(Cl)cccc1Cl
40 to 60 µM | O=c1c(Br)c(N(CCO)CCc2ccccc2)cnn1-c1c(Cl)cccc1Cl
0.1 to 20 µM | O=c1c(Br)c(NCc2ccccc2)cnn1-c1c(Cl)cccc1Cl
0.1 to 20 µM | O=c1c(Br)c(OCc2ccccc2)cnn1-c1c(Cl)cccc1Cl
0.1 to 20 µM | Cc1c(OCCc2ccccc2)cnn(-c2c(Cl)cccc2Cl)c1=O
0.1 to 20 µM | O=c1c(Br)c(NCCc2ccccc2)cnn1-c1c(Cl)cccc1Cl
60 to 80 µM | COc1c(OCCc2ccccc2)cnn(-c2c(Cl)cccc2Cl)c1=O
80 to 100 µM | C[C@@H](Nc1cnn(-c2c(Cl)cccc2Cl)c(=O)c1Br)c1ccccc1
0.1 to 20 µM | CS(=O)(=O)OCc1ccccc1COc1cnn(-c2c(Cl)cccc2Cl)c(=O)c1Br
60 to 80 µM | NN(Cc1ccccc1)c1cnn(-c2c(Cl)cccc2Cl)c(=O)c1Br
> 100 µM | O=c1c(Oc2ccccc2)c(OCCc2ccccc2)cnn1-c1c(Cl)cccc1Cl
